Results published in paper PMC9743090, “Induction of Ferroptosis in Glioblastoma and Ovarian Cancers by a New Pyrrole Tubulin Assembly Inhibitor” (Journal of Medicinal Chemistry, 2022).

What was measured:
tubulin = assay: Inhibition of [3H]colchicine binding to tubulin; conditions: inhibitor at 1:5:5 μM
Experimental: The assembly reaction mixtures contained 0.8 M monosodium glutamate (pH 6.6 with HCl in a 2 M stock solution), 10 μM tubulin, 4% (v/v) DMSO, and varying concentrations of the drug. Following a 15 min preincubation at 30 °C, samples were chilled on ice, GTP to 0.4 mM was added, and turbidity development was followed at 350 nm in a temperature-controlled recording spectrophotometer for 20 min at 30 °C. The extent of reaction was measured. Full experimental details were previously described.[63] For the colchicine binding assay, reaction mixtures contained 1.0 μM tubulin, 5.0 μM [^3H]colchicine, and 5.0 or 1.0 μM inhibitor and were incubated for 10 min at 37 °C. Complete details were described previously.[64]

U-87 MG GBM cells = assay: U-87 MG proliferation assay (cell count, Trypan Blue); format: cell-based; conditions: Homo sapiens, 48 h incubation, read-out: IC50 cell viability U-87 MG
Experimental: The methodology for the evaluation of the growth of human MCF-7 breast carcinoma cells was previously described, except that cells were grown for 96 h for IC50 determinations.[66] U-87 MG and OVCAR-3 proliferation assays were performed plating 10^4 cells/cm^2 in a Multiwell 24. The day after, cells were treated with compound 15, and DMSO was used as a control. Cells were counted 48 h later with a Bürker counting chamber, after dilution in TrypanBlue (#T6146 Sigma-Aldrich).
All experiments were performed multiple times to reach statistical significance, as specified in the figure legends. Statistical analysis was performed using GraphPad Prism version 7.0 for Mac. IC50 values were calculated by using a nonlinear regression formula, using the percentage of cells number and the logarithmic value of drug concentrations. Data were analyzed with analysis of variance (one-way ANOVA test). Data with *p < 0.05 were considered statistically significant.

U-87 MG = assay: In vivo U-87 MG xenograft, tumor size and tumor tissue analysis; set-up: species or system BALB/C^nu/nu mice
Experimental: (§1) Briefly, all 10 week-old female BALB/C^nu/nu mice (24 mice) were purchased from the Shanghai University of Traditional Chinese Medicine with Institutional Animal Care and Use Committee approval in accordance with institutional guidelines. All mice were randomly divided into four groups. In #1 group (4 mice), 1 × 10^8 cells/mL from U-87 MG at the logarithmic growth phase were harvested and inoculated subcutaneously, followed by intraperitoneal injection of 100 μL of 15 (25 mg/kg) every 2 days. In #2 group (4 mice), 1 × 10^8 cells/mL from U-87 MG at the logarithmic growth phase were harvested and inoculated subcutaneously, followed by intraperitoneal injection of 100 μL of saline every 2 days. In #3 group (4 mice), 1 × 10^8 cells/mL from SKOV-3 at the logarithmic growth phase were harvested and inoculated subcutaneously, followed by intraperitoneal injection of 100 μL 15 (25 mg/kg) every 2 days. In #4 group (4 mice), 1 × 10^8 cells/mL from SKOV-3 at the logarithmic growth phase were harvested and inoculated subcutaneously, followed by intraperitoneal injection of 100 μL of saline every 2 days. After continuous feeding for 40 days, the mice were sacrificed, and the tumors were removed. The tumors were weighed, and the volumes were calculated using the following formula: Tumor volume (cm^3) = (ab^2)/2 (a: the longest axis (cm), b: the shortest axis (cm)).
(§2) Briefly, fresh tissues were immersed in 4% paraformaldehyde (Sigma-Aldrich) for fixation at room temperature for 30 min. The tissues were then dehydrated in an ethanol gradient, embedded in paraffin, sectioned (thickness: 6 μm), and immersed in xylene for dewaxing. Tissue sections were blocked with immunohistochemical blocking solution (Beyotime Biotechnology Co., Ltd., Zhejiang, China) at 37 °C for 30 min. The blocking solution was then discarded, and the sections were washed three times at room temperature for 5 min, each with immunohistochemical washing solution (Beyotime Biotechnology). Then, primary antibodies (rabbit anti-GPX4 antibody [EPNCIR144] (ab125066), rabbit anti-ferritin heavy chain antibody [EPR18878] (ab183781), and rabbit anti-Ki67 antibody (ab15580), Abcam, MA, USA) were added and incubated at 37 °C for 45 min. After incubation, the antibody solution was discarded, and the sections were washed three times at room temperature for 5 min each with immunohistochemical washing solution (Beyotime Biotechnology). Then, the secondary antibody (goat anti-rabbit IgG H&L (Alexa Fluor 488), Abcam, MA, USA) was added, and the tissues were incubated at 37 °C for 45 min. After incubation, the antibody solution was discarded, and the sections were washed three times at room temperature for 5 min, each with immunohistochemical washing solution (Beyotime Biotechnology). Finally, immunofluorescence blocking solution (Sigma-Aldrich) was added, and the sections were mounted.
(§3) According to the instructions of the RNAprep pure Tissue Kit (TIANGEN Biotech (Beijing) China) Co., Ltd., Beijing, China), to about 20 mg of […] tissue specimen was added 800 μL of lysis solution, and the mixture was ground, homogenized, and centrifuged. To the supernatant, 200 μL of chloroform was added, and the mixture was mixed by inverting and centrifuged at 4 °C at 13,400 × g for 15 min. To the supernatant, two volumes of absolute ethanol were added, mixed by inversion, and centrifuged at 4 °C at 13,400 × g for 30 min. Ethanol precipitation and centrifugation of the supernatant were repeated. The RNA pellet was suspended with 500 μL of 75% ethanol and centrifuged at 13,400 × g at 4 °C for 5 min. The supernatant was discarded, the excess liquid was removed, and the pellet was dissolved in 300 μL of DECP water. One microliter of the RNA solution was used to measure the ratio of A260–A280 (generally 1.8–2.0) to determine the purity and approximate concentration of the RNA. […]

SKOV-3 = assay: In vivo SKOV-3 xenograft, tumor size and tumor tissue analysis; set-up: species or system BALB/C^nu/nu mice
Experimental: as §1, §2, §3

[1] = 25 mg/kg i.p. every 2 days, day 40

COc1cc(C(=O)c2cn(-c3ncccn3)cc2-c2ccco2)cc(OC)c1OC [Compound 15, (4-(Furan-2-yl)-1-(pyrimidyl-2-yl)-1H-pyrrol-3-yl)(3,4,5-trimethoxyphenyl)methanone]
Inhib. colch. binding 1-5-5 (% ± SD) (tubulin): 88 ± 0.4%
IC50 (U-87 MG GBM cells): 10.1 nM
ATP level in tumor tissue vs control (U-87 MG; 25 mg/kg i.p. every 2 days): significantly lower
Fe2+ concentration in tumor tissue vs control (U-87 MG; 25 mg/kg i.p. every 2 days): significantly higher
LPO level in tumor tissue vs control (U-87 MG; 25 mg/kg i.p. every 2 days): appreciably higher
MDA level in tumor tissue vs control (U-87 MG; 25 mg/kg i.p. every 2 days): appreciably higher
T-GSH level in tumor tissue vs control (U-87 MG; 25 mg/kg i.p. every 2 days): significantly lower
lactic acid level in tumor tissue vs control (U-87 MG; 25 mg/kg i.p. every 2 days): appreciably higher
tumor size (volume and weight) vs saline control (U-87 MG; [1]): significantly smaller
CD31 expression in tumor tissue vs control (U-87 MG; immunofluorescence staining): significantly lower expression
FTH1 expression in tumor tissue vs control (U-87 MG; immunofluorescence staining): significantly lower expression
GPX4 expression in tumor tissue vs control (U-87 MG; immunofluorescence staining): significantly lower expression
Ki67 expression in tumor tissue vs control (U-87 MG; immunofluorescence staining): significantly lower expression
ATP level in tumor tissue vs control (SKOV-3; 25 mg/kg i.p. every 2 days): significantly lower
Fe2+ concentration in tumor tissue vs control (SKOV-3; 25 mg/kg i.p. every 2 days): significantly higher
LPO level in tumor tissue vs control (SKOV-3; 25 mg/kg i.p. every 2 days): appreciably higher
MDA level in tumor tissue vs control (SKOV-3; 25 mg/kg i.p. every 2 days): appreciably higher
T-GSH level in tumor tissue vs control (SKOV-3; 25 mg/kg i.p. every 2 days): significantly lower
lactic acid level in tumor tissue vs control (SKOV-3; 25 mg/kg i.p. every 2 days): appreciably higher
tumor size (volume and weight) vs saline control (SKOV-3; [1]): significantly smaller
CD31 expression in tumor tissue vs control (SKOV-3; immunofluorescence staining): significantly lower expression
FTH1 expression in tumor tissue vs control (SKOV-3; immunofluorescence staining): significantly lower expression
GPX4 expression in tumor tissue vs control (SKOV-3; immunofluorescence staining): significantly lower expression
Ki67 expression in tumor tissue vs control (SKOV-3; immunofluorescence staining): significantly lower expression
